Results as given in patent publication US20080318970A1, “Treatment of Infectious Diseases” (priority 2004, published 2008).

Legend:
Type in all cases: cell-based
E. coli, LN 3164 [1] = test: Effect of chemosensitising compounds on DR (DR ratio) with ciprofloxacin, microtiter assay; settings: E. coli LN 3164; for DR ratio: MIC ciprofloxacin alone / MIC ciprofloxacin + chemosensitising compound at ¼ of its MIC
Experimental: The effects of the chemosensitising compounds on DR were studied by the microtiter assay described above by exposing cells to 0-64 μg/ml anti-infective drug in the absence or presence of chemosensitising compound. Each experiment was repeated in tripleduplicate. MIC values represent the mean values of two separate experiments.
A log phase culture of bacteria was diluted with fresh pre-warmed medium and adjusted to a defined OD at 600 nm in order to give a final concentration of 1×10^4 bacteria/ml medium in each well. […] Anti-infective agent was added to the bacterial culture in the wells in two-fold dilutions in order to give final concentrations ranging from 0 to 64 μg/ml. Trays were incubated at 37° C. for 16 h. The DR ratio was defined as the ratio between the MIC value for anti-infective agent alone divided by the MIC for the anti-infective agent in the presence of the chemosensitising compound. This ratio represents the increase in apparent potency of the anti-infective agent caused by the chemosensitising compound, and may be expressed as
DR ratio=(MICanti-infective agent)/(MICanti-infective agent+chemosensitising compound)

E. coli, LN 3164 [2] = test: MIC susceptibility test, microdilution broth method (NCCLS), chemosensitising compound alone; settings: 37° C., 16 h
Experimental: Bacteria were sub-cultured on Mueller-Hinton agar plates and incubated over night at 37° C. Pre-warmed Mueller-Hinton broth was inoculated with colonies from the plate and incubated for approximately three hours to achieve a log phase culture. The log phase culture of bacteria was diluted with fresh pre-warmed medium and adjusted to a defined Optical Density (OD) at 600 nm in order to give a final assay concentration of 1×10^4 bacteria/ml medium.
Cell growth was tested using the MIC susceptibility tests by use of the microdilution broth method in accordance to the NCCLS Guidelines (NCCLS Guidelines, Methods for Dilution Antimicrobial Susceptibility Tests for Bacteria That Grow Aerobically; Approved Standard, Sixth Edition, Volume 23; Number 2). A 100% Mueller-Hinton broth and a bacterial concentration of 1×10^4/ml were used.
A log phase culture of bacteria was diluted with fresh pre-warmed medium and adjusted to a defined OD at 600 nm in order to give a final concentration of 1×10^4 bacteria/ml medium in each well. Each chemosensitising compound was added to the bacterial culture in the wells in two-fold dilutions in order to give final concentrations ranging from 8 to 500 μg/ml. Trays were incubated at 37° C. for 16 h. Minimal Inhibitory Concentration, (MIC) is defined as the lowest inhibitory concentration showing no visible growth according to the NCCLS Guidelines.

[3] = tested on: Fluconazole Resistant Candida albicans; test: Checkerboard combination study on fungals, broth microdilution (NCCLS M27-A); settings: Candida albicans
Experimental: The synergistic effect of Trans-clopenthixol was studied by checkerboard combination studies exposing cells to 0-256 μg/ml anti-infective agent in the absence or presence of trans-clopenthixol (0 to 8 μg/ml in two-fold dilutions). Each experiment was repeated in tripleduplicate. MIC values represent the mean values of two separate experiments.
Clinical Isolate of a Fluconazole Resistant Candida albicans from a Patient with candidemia.
The isolates were subcultured for 24 h on Sabouraud glucose agar before susceptibility testing.
Broth microdilution tests were performed according to NCCLS document M27-A (Ref: National Committee for Clinical Laboratory Standards. (1997). Reference Method for Broth Dilution Antifungal Susceptibility Testing of Yeasts: Approved Standard M27-A. NCCLS, Wayne, Pa.)
Microtitre plates were read spectrophotometrically at 530 nm, after mixing the wells by pipetting to resuspend yeast sediments.
The Fractional Inhibitory Concentration (FIC) was calculated for the anti-infective agent alone and in combination with trans-clopenthixol. The following formulae were used to calculate the FIC index:
FIC=FICchemosensitising compound+FICanti-infective agent
FICchemosensitising compound=(MICchemosensitising compound+anti-infective agent)/(MICchemosensitising compound)
FICanti-infective agent=(MICanti-infective agent+chemosensitising compound/(MICanti-infective agent)
Synergy was defined as a FIC index of <0.5.

Row | Structure (SMILES) | DR ratio (E. coli, LN 3164 [1]) | MIC (E. coli, LN 3164 [2]) [µg/mL] | MIC [3] [µg/mL] | activity against drug resistance (in words) (E. coli, LN 3164 [1]; ciprofloxacin) | sensitised drug resistant cells to ciprofloxacin by (E. coli, LN 3164 [1]; ciprofloxacin) [%]
1 | CN1CCN(CCCN2c3ccccc3Sc3ccc(C(F)(F)F)cc32)CC1 [Trifluoperazine, trifluoperazine] | 16 | 16 | – | – | –
2 | OC(Cn1cncn1)(Cn1cncn1)c1ccc(F)cc1F [Fluconazole, reference compound] | – | – | 128 | – | –
3 | CN(C)CCCN1c2ccccc2[S+]([O-])c2ccc(Cl)cc21 (stereo not shown) [chlorpromazine sulfoxide] | – | – | – | same activity against drug resistance as did chlorpromazine | –
4 | CN1CCN(CCCN2c3ccccc3Sc3ccc(Cl)cc32)CC1 [Prochlorperazine, prochlorperazine] | 4 | 64 | – | – | –
5 | CN(C)CCCN1c2ccccc2Sc2ccc(C(F)(F)F)cc21 [Trifluopromazine, trifluopromazine] | 8 | 32 | – | – | –
6 | CSc1ccc2c(c1)N(CCCN(C)C)c1ccccc1S2 [Thiomethylpromazine, thiomethylpromazine] | 4 | 32 | – | – | –
7 | CN(C)CCCN1c2cc(Cl)ccc2Sc2cc(O)c(O)cc21 [7,8-dihydroxy-chlorpromazine, 7,8-dihydroxychlorpromazine] | 0.5 | 125 | – | – | –
8 | CNCCCN1c2ccccc2Sc2ccc(Cl)cc21 [Desmethyl-chlorpromazine, desmethylchlorpromazine] | 2 | 32 | – | – | –
9 | CC(CN1c2ccccc2Sc2ccccc21)N(C)C (stereo not shown) [Promethazine, promethazine] | 8 | 64 | – | – | –
10 | CN(C)CCCN1c2ccccc2Sc2ccccc21 [Promazine, promazine] | 2 | 64 | – | – | 100
